Data on 42 molecules can be found in patent US20260132129A1 (Genesis Therapeutics, Inc., priority 2022, published 2026).

In this experiment the target is T1, PI3Kα H1047R (T47D cells) (Homo sapiens, UniProt P42336, H1047R).
T1 construct: endogenous in cells; host or cells: T47D cells
As to the kind of experiment: PI3Kα cellular assay: pAKT HTRF in T47D cells after EGF stimulation. As to conditions: for IC50: T47D cells (PI3Kα H1047R), pAKT S473 HTRF, 1 hr compound, 20 ng/ml EGF 10 min. Type of experiment: cell-based. A digest of the protocol: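 pAKT read by HTRF in lysates of EGF-stimulated (20 ng/mL, 10 min) T47D H1047R cells. Before stimulation, serum-starved cells (16 h) received compound for 1 h at 37 °C, dosed from 10,000 nM down to 0.5 nM in 3-fold steps.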

T1 sequence (P42336 whole entry H1047R): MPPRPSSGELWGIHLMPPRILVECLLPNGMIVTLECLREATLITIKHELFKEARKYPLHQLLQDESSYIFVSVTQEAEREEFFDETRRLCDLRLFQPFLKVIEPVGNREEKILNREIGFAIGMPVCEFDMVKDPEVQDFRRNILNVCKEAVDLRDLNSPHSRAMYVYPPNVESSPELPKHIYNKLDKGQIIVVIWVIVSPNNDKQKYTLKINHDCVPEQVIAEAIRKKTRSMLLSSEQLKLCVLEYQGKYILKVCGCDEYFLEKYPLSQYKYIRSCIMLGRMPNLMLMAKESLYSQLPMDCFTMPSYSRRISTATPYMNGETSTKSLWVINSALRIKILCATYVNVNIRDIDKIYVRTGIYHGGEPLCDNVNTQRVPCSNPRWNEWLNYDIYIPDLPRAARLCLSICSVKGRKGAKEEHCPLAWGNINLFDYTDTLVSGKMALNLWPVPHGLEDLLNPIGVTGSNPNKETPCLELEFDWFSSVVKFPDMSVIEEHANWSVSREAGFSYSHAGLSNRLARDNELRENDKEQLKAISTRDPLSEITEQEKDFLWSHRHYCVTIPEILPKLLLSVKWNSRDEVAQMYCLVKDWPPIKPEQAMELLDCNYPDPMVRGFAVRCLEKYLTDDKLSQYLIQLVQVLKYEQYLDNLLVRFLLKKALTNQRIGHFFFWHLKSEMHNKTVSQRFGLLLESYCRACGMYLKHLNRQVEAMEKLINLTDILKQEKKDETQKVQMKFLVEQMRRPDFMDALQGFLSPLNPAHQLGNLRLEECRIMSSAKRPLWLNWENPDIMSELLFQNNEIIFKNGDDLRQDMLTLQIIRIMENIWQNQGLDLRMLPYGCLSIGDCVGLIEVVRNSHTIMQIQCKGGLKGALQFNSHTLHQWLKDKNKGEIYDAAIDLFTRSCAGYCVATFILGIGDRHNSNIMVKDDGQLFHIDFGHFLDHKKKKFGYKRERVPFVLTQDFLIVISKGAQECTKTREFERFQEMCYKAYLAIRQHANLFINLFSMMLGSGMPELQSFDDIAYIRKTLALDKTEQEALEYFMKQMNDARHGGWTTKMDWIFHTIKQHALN
T1 sequence (P27986 whole entry partner): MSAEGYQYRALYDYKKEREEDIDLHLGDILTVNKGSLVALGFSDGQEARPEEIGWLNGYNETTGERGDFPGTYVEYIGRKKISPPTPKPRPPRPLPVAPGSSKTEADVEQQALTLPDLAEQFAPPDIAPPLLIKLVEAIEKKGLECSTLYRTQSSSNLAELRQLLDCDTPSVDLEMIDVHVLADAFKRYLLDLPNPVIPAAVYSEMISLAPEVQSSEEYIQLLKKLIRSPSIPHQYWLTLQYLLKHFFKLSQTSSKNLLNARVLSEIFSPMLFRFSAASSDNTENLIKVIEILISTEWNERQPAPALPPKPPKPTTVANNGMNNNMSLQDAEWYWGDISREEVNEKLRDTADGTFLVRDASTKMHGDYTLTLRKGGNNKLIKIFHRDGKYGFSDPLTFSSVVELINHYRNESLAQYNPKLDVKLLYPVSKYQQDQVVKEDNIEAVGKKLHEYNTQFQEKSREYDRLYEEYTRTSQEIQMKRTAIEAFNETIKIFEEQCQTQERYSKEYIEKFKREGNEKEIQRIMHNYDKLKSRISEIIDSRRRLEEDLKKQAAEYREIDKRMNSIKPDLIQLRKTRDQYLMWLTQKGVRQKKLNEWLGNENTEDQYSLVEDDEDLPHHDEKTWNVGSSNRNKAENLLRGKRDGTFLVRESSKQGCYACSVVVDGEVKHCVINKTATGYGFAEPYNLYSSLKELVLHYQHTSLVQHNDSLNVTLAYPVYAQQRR

For orientation: IC50 means the midpoint of a concentration-inhibition curve. Take `Cc1cc(C(C)NC2=CC=CCC2C(=O)O)c2nc(Cc3cccc(C4=CCCC=C4)c3)c(C)c(=O)n2c1` (stereo not shown) [Compound 300]: the IC50 was above 2 µM and the “T47D pAKT S473 HTRF IC50 (H1047R): T47D (H1047R) selectivity over SKBR3 (WT)” value is reported as “C (C denotes ≤5-fold)”.
As to `Cc1cc(C(C)Nc2ccccc2C(=O)O)c2nc(-c3ccc(S(N)(=O)=O)cc3)cc(=O)n2c1` (stereo not shown) [Compound 302], the IC50 lay within 0.5 to 2 µM and the “T47D pAKT S473 HTRF IC50 (H1047R): T47D (H1047R) selectivity over SKBR3 (WT)” value is given as “B (B denotes 20-fold≥value>5-fold)”.
As for `Cc1cc(C(C)Nc2ccccc2C(=O)O)c2nc(-c3cccc(-c4nn[nH]n4)c3)cc(=O)n2c1` (stereo not shown) [Compound 303], the IC50 is above 2 µM and the “T47D pAKT S473 HTRF IC50 (H1047R): T47D (H1047R) selectivity over SKBR3 (WT)” value is given as “C (C denotes ≤5-fold)”.
The like results for `Cc1cc(C(C)Nc2ccccc2C(=O)O)c2nc(-c3ccc4[nH]nc(-c5ccccn5)c4c3)cc(=O)n2c1` (stereo not shown) [Compound 304] were, in that order, above 2 µM and “C (C denotes ≤5-fold)”.
The like results for `Cc1cc([C@@H](C)Nc2ccccc2C(=O)O)c2nc(-c3ccc(CC4CCN(C)CC4)cc3)c(C)c(=O)n2c1` [Compound 307] were, in that order, 0.5 to 2 µM and “B (B denotes 20-fold≥value>5-fold)”.
Turning to `Cc1cc(C(C)Nc2ccccc2C(=O)O)c2nc(-c3ccc(CN4CCN(C)CC4)cc3)cc(=O)n2c1` (stereo not shown) [Compound 308], the IC50 was above 2 µM and the “T47D pAKT S473 HTRF IC50 (H1047R): T47D (H1047R) selectivity over SKBR3 (WT)” value is on record as “C (C denotes ≤5-fold)”.
Turning to `Cc1cc([C@@H](C)N(C)c2ccccc2C(=O)O)c2nc(N3CCOCC3)cc(=O)n2c1` [Compound 309], the IC50 was above 2 µM and the “T47D pAKT S473 HTRF IC50 (H1047R): T47D (H1047R) selectivity over SKBR3 (WT)” value was “C (C denotes ≤5-fold)”.
Consider `Cc1cc([C@H](C)N(C)c2ccccc2C(=O)O)c2nc(N3CCOCC3)cc(=O)n2c1` [Compound 310], for which the IC50 was above 2 µM and the “T47D pAKT S473 HTRF IC50 (H1047R): T47D (H1047R) selectivity over SKBR3 (WT)” value is listed as “C (C denotes ≤5-fold)”.
In the case of `COCCNc1cc(=O)n2cc(C)cc(C(C)Nc3ccccc3C(=O)O)c2n1` (stereo not shown) [Compound 313], the concentration for half-maximal inhibition (IC50) was above 2 µM and the “T47D pAKT S473 HTRF IC50 (H1047R): T47D (H1047R) selectivity over SKBR3 (WT)” value is given as “C (C denotes ≤5-fold)”.
The like results for `Cc1cc(C(C)Nc2ccccc2C(=O)O)c2nc(N3C[C@@H](C)O[C@@H](C)C3)cc(=O)n2c1` (stereo partly shown) [Compound 315] were, in that order, 0.5 to 2 µM and “B (B denotes 20-fold≥value>5-fold)”.
Regarding `Cc1cc([C@@H](C)Nc2ccccc2C(=O)O)c2nc(C3CCOCC3)cc(=O)n2c1` [Compound 316], the IC50 is above 2 µM and the “T47D pAKT S473 HTRF IC50 (H1047R): T47D (H1047R) selectivity over SKBR3 (WT)” value is listed as “C (C denotes ≤5-fold)”.
For the molecule `Cc1cc([C@H](C)Nc2ccccc2C(=O)O)c2nc(C3CCOCC3)cc(=O)n2c1` [Compound 317], the IC50 lay within 0.1 to 0.5 µM and the “T47D pAKT S473 HTRF IC50 (H1047R): T47D (H1047R) selectivity over SKBR3 (WT)” value is reported as “A (A denotes >20-fold)”.
Consider `Cc1cc(C(C)Nc2ccccc2C(=O)O)c2nc(-c3ccc4[nH]nc(-c5ccccn5)c4c3)cc(=O)n2c1` (stereo not shown) [Compound 318], for which the half-maximal inhibitory concentration (IC50) is above 2 µM and the “T47D pAKT S473 HTRF IC50 (H1047R): T47D (H1047R) selectivity over SKBR3 (WT)” value is reported as “C (C denotes ≤5-fold)”.
On the same counts, the results for `Cc1cc([C@@H](C)Nc2ccccc2C(=O)O)c2nc(N3C[C@@H](C)O[C@@H](C)C3)cc(=O)n2c1` [Compound 319] are 0.1 to 0.5 µM and “A (A denotes >20-fold)”.
Regarding `Cc1cc([C@H](C)Nc2ccccc2C(=O)O)c2nc(N3C[C@@H](C)O[C@@H](C)C3)cc(=O)n2c1` [Compound 320], the half-maximal inhibitory concentration (IC50) is above 2 µM and the “T47D pAKT S473 HTRF IC50 (H1047R): T47D (H1047R) selectivity over SKBR3 (WT)” value is reported as “C (C denotes ≤5-fold)”.
The like results for `Cc1cc(C(C)Nc2ccccc2C#N)c2nc(N3CCOCC3)cc(=O)n2c1` (stereo not shown) [Compound 321] were, in that order, above 2 µM and “C (C denotes ≤5-fold)”.
On the same counts, the results for `COc1ccc(C(=O)O)c(NC(C)c2cc(C)cn3c(=O)cc(N4CCOCC4)nc23)c1` (stereo not shown) [Compound 323] are above 2 µM and “C (C denotes ≤5-fold)”.
On the same counts, the results for `COc1cc(NC(C)c2cc(C)cn3c(=O)cc(N4CCOCC4)nc23)c(C(=O)O)cc1OC` (stereo not shown) [Compound 325] are above 2 µM and “C (C denotes ≤5-fold)”.
In the case of `Cc1cc(C(C)Nc2cc(C#N)ccc2C(=O)O)c2nc(N3CCOCC3)cc(=O)n2c1` (stereo not shown) [Compound 326], the 50% inhibitory concentration (IC50) was above 2 µM and the “T47D pAKT S473 HTRF IC50 (H1047R): T47D (H1047R) selectivity over SKBR3 (WT)” value is on record as “C (C denotes ≤5-fold)”.
On the same counts, the results for `Cc1cc(C(C)Nc2cc(C(F)(F)F)ccc2C(=O)O)c2nc(N3CCOCC3)c(C)c(=O)n2c1` (stereo not shown) [Compound 328] are above 2 µM and “C (C denotes ≤5-fold)”.
On to `Cc1cc(C(C)Nc2ccc(C#N)cc2C(=O)O)c2nc(N3CCOCC3)cc(=O)n2c1` (stereo not shown) [Compound 329], for which the IC50 is above 2 µM and the “T47D pAKT S473 HTRF IC50 (H1047R): T47D (H1047R) selectivity over SKBR3 (WT)” value is recorded as “C (C denotes ≤5-fold)”.
As to `Cc1cc([C@@H](C)Nc2cccc(C)c2C(=O)O)c2nc(C3CCOCC3)cc(=O)n2c1` [Compound 330], the IC50 was above 2 µM and the “T47D pAKT S473 HTRF IC50 (H1047R): T47D (H1047R) selectivity over SKBR3 (WT)” value is reported as “C (C denotes ≤5-fold)”.
On the same counts, the results for `Cc1cc([C@H](C)Nc2cccc(F)c2C(=O)O)c2nc(N3CCOCC3)cc(=O)n2c1` [Compound 331] are above 2 µM and “C (C denotes ≤5-fold)”.
On the same counts, the results for `Cc1cc([C@@H](C)Oc2ccc(F)cc2C(=O)O)c2nc(N3CCOCC3)cc(=O)n2c1` [Compound 332] are above 2 µM and “C (C denotes ≤5-fold)”.
On the same counts, the results for `Cc1cc([C@@H](C)Nc2c(F)cccc2C(=O)O)c2nc(N3CCOCC3)cc(=O)n2c1` [Compound 333] are above 2 µM and “C (C denotes ≤5-fold)”.
For `Cc1cc([C@H](C)Nc2c(F)cccc2C(=O)O)c2nc(N3CCOCC3)cc(=O)n2c1` [Compound 334], the IC50 was above 2 µM and the “T47D pAKT S473 HTRF IC50 (H1047R): T47D (H1047R) selectivity over SKBR3 (WT)” value is given as “C (C denotes ≤5-fold)”.
For the molecule `Cc1cc([C@@H](C)Nc2c(C)cccc2C(=O)O)c2nc(N3CCOCC3)cc(=O)n2c1` [Compound 335], the IC50 is above 2 µM and the “T47D pAKT S473 HTRF IC50 (H1047R): T47D (H1047R) selectivity over SKBR3 (WT)” value is recorded as “C (C denotes ≤5-fold)”.
For `Cc1cc([C@H](C)Nc2ccccc2C#N)c2nc(N3CCOCC3)cc(=O)n2c1` [Compound 338], the IC50 is above 2 µM and the “T47D pAKT S473 HTRF IC50 (H1047R): T47D (H1047R) selectivity over SKBR3 (WT)” value was “C (C denotes ≤5-fold)”.
For the molecule `Cc1cc(C(C)Nc2ccccc2C(=O)O)c2nc(C3CCC(C)CC3)cc(=O)n2c1` (stereo not shown) [Compound 339], the “T47D pAKT S473 HTRF IC50 (H1047R): T47D (H1047R) selectivity over SKBR3 (WT)” value is listed as “C (C denotes ≤5-fold)”.
On to `Cc1cc([C@@H](C)Nc2ccccc2-n2nn[nH]c2=O)c2nc(N3CCOCC3)cc(=O)n2c1` [Compound 343], for which the IC50 is above 2 µM and the “T47D pAKT S473 HTRF IC50 (H1047R): T47D (H1047R) selectivity over SKBR3 (WT)” value is listed as “C (C denotes ≤5-fold)”.
On the same counts, the results for `Cc1cc([C@H](C)Nc2ccccc2-n2nn[nH]c2=O)c2nc(N3CCOCC3)cc(=O)n2c1` [Compound 344] are above 2 µM and “C (C denotes ≤5-fold)”.
On the same counts, the results for `Cc1cc(C(C)Nc2ccccc2S(N)(=O)=O)c2nc(-c3ccncc3)cc(=O)n2c1` (stereo not shown) [Compound 346] are 0.5 to 2 µM and “A (A denotes >20-fold)”.
On to `Cc1cc(C(C)Nc2ccccc2C(=O)O)c2nc(-c3ccc4c(c3)c(N)nn4C)cc(=O)n2c1` (stereo not shown) [Compound 347], for which the IC50 lay in the range of 0.1 to 0.5 µM and the “T47D pAKT S473 HTRF IC50 (H1047R): T47D (H1047R) selectivity over SKBR3 (WT)” value is recorded as “A (A denotes >20-fold)”.
For the molecule `Cc1cc(C(C)Nc2ccccc2C(=O)O)c2nc(-c3ccc4[nH]nc(C)c4c3)cc(=O)n2c1` (stereo not shown) [Compound 348], the “T47D pAKT S473 HTRF IC50 (H1047R): T47D (H1047R) selectivity over SKBR3 (WT)” value is recorded as “A (A denotes >20-fold)”.
Regarding `Cc1cc(C(C)Nc2ccccc2C(=O)O)c2nc(-c3cnc4[nH]nc(-c5ccccc5)c4c3)cc(=O)n2c1` (stereo not shown) [Compound 351], the IC50 is above 2 µM and the “T47D pAKT S473 HTRF IC50 (H1047R): T47D (H1047R) selectivity over SKBR3 (WT)” value is given as “C (C denotes ≤5-fold)”.
As for `COc1cc(-c2cc(=O)n3cc(C)cc(C(C)Nc4ccccc4C(=O)O)c3n2)cc(S(N)(=O)=O)c1` (stereo not shown) [Compound 355], the IC50 was in the range of 0.5 to 2 µM and the “T47D pAKT S473 HTRF IC50 (H1047R): T47D (H1047R) selectivity over SKBR3 (WT)” value is given as “B (B denotes 20-fold≥value>5-fold)”.
The like results for `CNC(=O)c1ccc(-c2cc(=O)n3cc(C)cc(C(C)Nc4ccccc4C(=O)O)c3n2)c(C)c1` (stereo not shown) [Compound 356] were, in that order, above 2 µM and “C (C denotes ≤5-fold)”.
As for `Cc1cc(C(C)Nc2cnncc2C(=O)O)c2nc(N3CCOCC3)cc(=O)n2c1` (stereo not shown) [Compound 357], the IC50 was above 2 µM and the “T47D pAKT S473 HTRF IC50 (H1047R): T47D (H1047R) selectivity over SKBR3 (WT)” value is recorded as “C (C denotes ≤5-fold)”.
The like results for `Cc1cc(C(C)Nc2ccnnc2C(=O)O)c2nc(N3CCOCC3)cc(=O)n2c1` (stereo not shown) [Compound 358] were, in that order, above 2 µM and “C (C denotes ≤5-fold)”.
The like results for `Cc1cc([C@@H](C)Nc2ccccc2C(=O)O)c2nc(N3CCC(C)CC3)cc(=O)n2c1` [Compound 359] were, in that order, below 0.1 µM and “A (A denotes >20-fold)”.
In the case of `Cc1cc([C@H](C)Nc2ccccc2C(=O)O)c2nc(N3CCC(C)CC3)cc(=O)n2c1` [Compound 360], the concentration for half-maximal inhibition (IC50) was above 2 µM and the “T47D pAKT S473 HTRF IC50 (H1047R): T47D (H1047R) selectivity over SKBR3 (WT)” value is “C (C denotes ≤5-fold)”.
On the same counts, the results for `Cc1cc([C@@H](C)Nc2ccccc2C(=O)O)c2nc(N3CCC(C)(C)CC3)cc(=O)n2c1` [Compound 361] are below 0.1 µM and “A (A denotes >20-fold)”.
